Holding throughout (type): cell-based
Test [1] deals with Renilla_ERa. The experiment in a line: Renilla signal in ERα counterscreen (Renilla_ERa). To be noted: Table 15, read-out: Renilla ERalpha transient, cmpd/DMSO (mean).
Test [2] addresses T1, ERα (Homo sapiens, UniProt P03372).
T1 construct: expressed in transfected cells
T1 sequence (P03372 1-595): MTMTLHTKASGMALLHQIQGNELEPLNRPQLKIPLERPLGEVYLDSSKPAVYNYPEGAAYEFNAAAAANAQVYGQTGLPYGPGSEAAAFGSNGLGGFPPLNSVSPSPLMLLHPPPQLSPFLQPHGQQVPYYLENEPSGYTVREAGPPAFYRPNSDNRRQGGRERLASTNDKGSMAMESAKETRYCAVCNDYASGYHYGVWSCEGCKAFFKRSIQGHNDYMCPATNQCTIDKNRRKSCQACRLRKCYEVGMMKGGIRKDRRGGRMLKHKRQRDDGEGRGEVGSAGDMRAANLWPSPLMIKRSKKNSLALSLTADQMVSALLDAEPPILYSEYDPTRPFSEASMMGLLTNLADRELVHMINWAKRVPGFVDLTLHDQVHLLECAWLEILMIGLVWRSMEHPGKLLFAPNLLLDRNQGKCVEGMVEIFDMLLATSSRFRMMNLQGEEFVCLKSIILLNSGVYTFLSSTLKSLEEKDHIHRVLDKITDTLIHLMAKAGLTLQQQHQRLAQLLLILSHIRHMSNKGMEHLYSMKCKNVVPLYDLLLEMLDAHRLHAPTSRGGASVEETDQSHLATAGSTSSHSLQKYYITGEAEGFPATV
The experiment in a line: Counterscreening, Firefly signal with ERα transient transfection (Firefly_ERa). The note with it: Table 15; 10 uM. How it is done:
The methodology for screening candidate compounds as NR2F6 agonists was as follows: For primary screening, hit criteria was ACT %>DMSO control+5*SD (DSO control) at 10 μM, or any compound with S/B>2. For rescreening, hit criteria was ACT %>DMSO control+3*SD (DSO control) in each replicate at 10 μM. For counterscreening, hit criteria was mean ACT<DMSO control+3*SD (DMSO control) with ERα transient transfection in duplicate at 10 μM.
A general note: A counterscreen serves to expose hits that act by an unwanted route or on another target.

The target of test [3] is T2, NR2F6 (Homo sapiens, UniProt P10588).
T2 construct: expressed in transfected cells; also transient transfection
T2 sequence (P10588 1-404): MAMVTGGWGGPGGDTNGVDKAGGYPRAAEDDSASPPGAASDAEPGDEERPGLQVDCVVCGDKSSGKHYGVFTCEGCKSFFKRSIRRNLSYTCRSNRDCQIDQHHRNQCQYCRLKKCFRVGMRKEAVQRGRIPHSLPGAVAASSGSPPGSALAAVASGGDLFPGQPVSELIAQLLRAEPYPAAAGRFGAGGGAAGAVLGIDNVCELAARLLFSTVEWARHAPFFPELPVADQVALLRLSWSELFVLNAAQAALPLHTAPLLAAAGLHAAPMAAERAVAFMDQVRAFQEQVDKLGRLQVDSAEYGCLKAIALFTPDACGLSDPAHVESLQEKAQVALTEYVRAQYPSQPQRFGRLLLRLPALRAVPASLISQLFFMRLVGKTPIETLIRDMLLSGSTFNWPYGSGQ
In words: NR2F6 agonist screening, Firefly signal cmpd/DMSO. The note with it: Table 15.

The target in test [4] is T1, ERα. In words: Counterscreening, Firefly signal with ERα transient transfection (Firefly_ERa). To be noted: Table 15.
In test [5] the test system is Renilla. The experiment in a line: Renilla signal in NR2F6 agonist screening, cmpd/DMSO. To be noted: Renilla, Table 15, read-out: Renilla F4, cmpd/DMSO (mean).

The structures appear in SMILES notation.

On to `CCOC(=O)c1cnc2c(C)cc(C)cc2c1NCCCN1CCCC1` [Compound Z61], for which the fold induction at 2 µM in test [1] was determined as 1.4; in test [5], 1.3. For the same compound, the fold induction at 10 µM in test [1] was 0.8; in test [5], 0.5. The fold induction at 40 µM in test [1] came to 0.7; in test [5], 0.6. Further, the “Firefly ERalpha transient, cmpd/DMSO (mean)” value in test [2] is 9.1; in test [4] (2 uM), 3.0; in test [4] (40 uM), 0.7. For the same compound, the “Firefly F4, cmpd/DMSO (mean)” value in test [3] (2 uM) came out at 1.7; in test [3] (10 uM) it was 2.5; in test [3] (40 uM), 0.8.
With `CCOC(=O)c1cnc2c(C)cc(C)cc2c1N1CCC(N(C)C)CC1` [Compound Z68], the results for the fold induction at 2 µM in test [1] and in test [5] were 1.1 and 0.9, respectively. For the same compound, the fold induction at 10 µM in test [1] was determined as 0.9; in test [5], 1. Moreover, the fold induction at 40 µM in test [1] and in test [5] was 0.6 in each case. For the same compound, the “Firefly ERalpha transient, cmpd/DMSO (mean)” value in test [2] is reported as 1.5; in test [4] (2 uM) it was 1.1; in test [4] (40 uM), 0.7. Besides, the “Firefly F4, cmpd/DMSO (mean)” value in test [3] (2 uM) was determined as 1.5; in test [3] (10 uM), 1.1; in test [3] (40 uM), 1.2.
As to `CCOC(=O)c1cnc2c(C)cc(C)cc2c1NCCCO` [Compound Z70], the fold induction at 2 µM in test [1] was determined as 1.1; in test [5], 0.8. The fold induction at 10 µM in test [1] came out at 1; in test [5], 1.3. Moreover, the fold induction at 40 µM in test [1] was 1.2; in test [5], 1.3. Besides, the “Firefly ERalpha transient, cmpd/DMSO (mean)” value in test [2] is 1.1; in test [4] (2 uM) it was 0.9; in test [4] (40 uM) it was 1.5. Further, the entries for the “Firefly F4, cmpd/DMSO (mean)” value in test [3] (2 uM), in test [3] (10 uM) and in test [3] (40 uM) were 1.1, 1.0 and 1.0, respectively.
Regarding `CCOC(=O)c1cnc2c(C)cc(C)cc2c1NCCCOC` [Compound Z71], the fold induction at 2 µM in test [1] turned out to be 1; in test [5] it was 1.1. Besides, the fold induction at 10 µM in test [1] stood at 1; in test [5], 0.9. For the same compound, the fold induction at 40 µM is 0.5 in test [1] and 0.4 in test [5]. Besides, the “Firefly ERalpha transient, cmpd/DMSO (mean)” value was determined as 1.0 in test [2], 1.4 in test [4] (2 uM) and 0.4 in test [4] (40 uM). Further, the “Firefly F4, cmpd/DMSO (mean)” value is reported as 0.8 in test [3] (2 uM), 1.0 in test [3] (10 uM) and 0.8 in test [3] (40 uM).
For the compound `CCOC(=O)c1cnc2c(C)cc(C)cc2c1NCc1ccc(Cl)cc1` [Compound Z75], the fold induction at 2 µM came to 1 in test [1] and 1.1 in test [5]. Further, the fold induction at 10 µM was 0.9 in test [1] and 1 in test [5]. For the same compound, the fold induction at 40 µM stood at 0.7 in test [1] and 0.8 in test [5]. In addition, the “Firefly ERalpha transient, cmpd/DMSO (mean)” value is on record as 1.9 in test [2], 1.1 in test [4] (2 uM) and 0.9 in test [4] (40 uM). The “Firefly F4, cmpd/DMSO (mean)” value in test [3] (2 uM) is 0.9; in test [3] (10 uM), 1.2; in test [3] (40 uM) it was 0.8.
Consider `CCOC(=O)c1cnc2c(C)cc(C)cc2c1N1CCC(C)CC1` [Compound Z76], for which the results for the fold induction at 2 µM in test [1] and in test [5] were 1.1 and 1, respectively. For the same compound, the fold induction at 10 µM in test [1] and in test [5] was 0.8 throughout. The figures for the fold induction at 40 µM in test [1] and in test [5] were 0.4 and 0.5, respectively. Also, the “Firefly ERalpha transient, cmpd/DMSO (mean)” value in test [2] was 1.9; in test [4] (2 uM) it was 1.3; in test [4] (40 uM) it was 0.7. Further, the “Firefly F4, cmpd/DMSO (mean)” value in test [3] (2 uM) is given as 0.8; in test [3] (10 uM), 1.8; in test [3] (40 uM), 0.8.
Consider `CCOC(=O)c1cnc2c(C)cc(C)cc2c1N1CCC(O)CC1` [Compound Z78], for which the fold induction at 2 µM in test [1] was 1; in test [5] it was 1.1. Further, the results for the fold induction at 10 µM in test [1] and in test [5] were 0.9 and 1, respectively. In addition, the fold induction at 40 µM in test [1] stood at 0.6; in test [5] it was 0.8. Moreover, the “Firefly ERalpha transient, cmpd/DMSO (mean)” value in test [2] is reported as 2.4; in test [4] (2 uM) it was 1.5; in test [4] (40 uM), 1.1. Further, the “Firefly F4, cmpd/DMSO (mean)” value in test [3] (2 uM) is reported as 1.4; in test [3] (10 uM), 1.5; in test [3] (40 uM), 1.6.

The values above are taken from patent US11377442B2, “Small molecule agonists and antagonists of NR2F6 activity” (ZANDER THERAPEUTICS, INC., priority 2016, dated 2022).
